For data set [1], the system named is human transferrin binding to AAV8 virions. As to the kind of experiment: AAV8 competitive binding assay. The conditions noted are these: pre-incubation with AAV8, then human transferrin; pull down with transferrin antibody, qPCR. The method, then: AAV8 competitive binding assay. For THR competitive binding analysis, 10 ul of Protein G resin (Thermo, USA) per system was incubated with 1 ug of human transferrin antibody or goat IgG antibody control at 4° C. overnight. […] After that, the mixture was added to the complex of protein G resin and transferrin antibody and incubated at 4° C. overnight. Finally, the complex was stringently washed three times with cold DPBS. DNA from the complex was extracted and applied for qPCR to determine AAV genome copy number per cell using luc specific primers.
To investigate whether THR also binds to the same location of AAV8 virions as human serum proteins, we performed a competitive assay. […] The transferrin antibody was used to pull down transferrin bound AAV8 virions and AAV8 gene copy number was measured by qPCR.
In general terms: In qPCR the cycle at which signal appears reflects the starting amount.

A short description of data set [2]: AAV9 brain transduction with THR after systemic administration. The format is in vivo.
Data set [3] deals with C57BL/6 mice. Description: In vivo luciferase imaging after retro-orbital injection of AAV8/luc with peptides. Also noted: species or system mouse.
Method: (§1) Animal study. […] Mice were administered with AAV8/Luc incubated with peptides via retro-orbital injection. Luciferase expression was imaged at the indicated time points using a Xenogen IVIS Lumina (Caliper Lifesciences, Waltham, MA) following intraperitoneal injection of D-luciferin substrate (Nanolight Pinetop, AZ). Bioluminescent images were analyzed using Living Image (PerkinElmer, Waltham, MA). At various time points after injection, blood was collected from the retro-orbital plexus, and the viral titers were tested by qPCR.
Data set [4] concerns C57BL/6 mice. Description: Measurement of AAV genome copy number in tissue. It is filed as in vivo, mouse. The method, then:
Measurement of AAV genome copy number in tissue. Total gDNA from different minced tissues was isolated with the DNeasy blood & tissue kit (Qiagen, USA). Luciferase gene was measured by qPCR assay. Mouse-lamin gene served as an internal control.

The test system of the next data set is Huh7 cells. Description: AAV8 binding assay. The format is cell-based, human. The conditions noted are these: 4° C., 1 h; genome copy number normalized to GAPDH. The method, then:
AAV8 binding assay. The complex of AAV8/luc and THR or human apo-transferrin protein (Sigma, 616395, USA) was incubated at 4° C. for 2 h, 10000 vg AAV8/luc virus alone or the complex was added into Huh7 cells at a cell density of 4E+05 per well for 1 h at 4° C., and then washed with DPBS 3 times. Finally, genome DNA (gDNA) was extracted from the cells with the DNeasy blood & tissue kit (Qiagen, USA) and was quantified by qPCR with luciferase primers and reference GAPDH primers.

Data set [5] relates to C57BL/6 mice. Description: Quantitation of luciferase expression in tissues. The format is in vivo, mouse. The method, then:
Quantitation of luciferase expression in tissues. Animals utilized for imaging studies were sacrificed after one-week post imaging work, and the tissues of the heart, liver, spleen, skeletal muscle and brain were collected, and were minced and homogenized in passive lysis buffer. Then the lysates were centrifuged at 10,000 rpm for 5 minutes to remove cellular debris. Supernatant was transferred to 96-well plates for luciferase activity analysis as described above. Total protein concentration in tissue lysates was measured using the Bradford assay (Bio-Rad Laboratories, Philadelphia, PA).

In data set [6] the test system is HEK293 cells or Huh7 cells. Description: In vitro transduction assay, AAV8/luc with peptides. It is filed as cell-based, human. The conditions noted are these: 10000 vg AAV8/luc incubated with peptides 2 h at 4° C.; both cell lines; 48 h; vs AAV8 only. The method, then: In vitro transduction assay. At least 4-5 h prior to AAV transduction, cells were seeded in 48-well plates with a density of 1E+05 cells each well. Cells were infected with 1E+04 vector genomes (vg) of AAV8/luc virus per cell and harvested after 48 h. Luciferase activity was measured following manufacturer's instruction (Promega, Madison, WI).
The complex of AAV8 and peptides influences AAV8 transduction in vitro and in vivo. To identify the potential and functional peptides that enhanced AAV8 transduction, we screened several reported peptides as shown in Table 5 and Table 6. First, we tested the cytotoxicity of peptides at different concentrations on cells. […] After that, we performed the transduction assay in vitro. We incubated the 10000 vg AAV8/luc and peptides for 2 h at 4° C., and then applied the mixture to HEK293 cells or Huh7 cells. After 48 h, the cell lysate was collected for luciferase analysis.

In data set [7] the test system is C57BL/6 mice. The conditions noted are these: 1E+11 vg each mouse, intravenous; 5 min to 48 h; vs AAV8/luc.
Method: as §1
Another data set concerns the target T1, mouse TfR1 (Mus musculus, UniProt Q62351).
T1 construct: expressed in transfected cells; host or cells: CHO-TRVB cells (devoid of endogenous TfR1)
As to the kind of experiment: Immunofluorescence assay on CHO-TRVB cells. The format is binding. The conditions noted are these: 5-FAM-THR. The method, then: Immunofluorescence. Plasmids mCherry-TFR-20 and mCherry-mTfR-20 were separately transfected into the 50-70% confluent CHO-TRVB cells grown on glass coverslips using lipofectamine 3000 reagent (Invitrogen, USA). After 48 h post-transfection, the coverslips were washed and incubated with 1 nM 5-FAM-THR at 37° C. for 1 h, then cells were acid-washed with 0.2 M glycine/HCl, pH 2.2, and fixed in 4% paraformaldehyde for 30 min at 4° C. Finally, DAPI was used at a 1:5,000 dilution for 5 min at RT. Coverslips were mounted and imaged on the Olympus IX-83 fluorescence microscope.

The next data set concerns Huh7 or HEK293 cells. Description: Neutralization assay (Nab titer). The following applies: THR at different concentrations. It is filed as cell-based, human. The method, then:
Neutralization assay. Huh7 or HEK293 cells were seeded in 48-well plates with a density of 5E+04 cells each well. The complex of AAV8/luc and different concentrations of THR was incubated at 4° C. for 2 h, then, two-fold dilutions of the mouse AAV8 sera were incubated with 1E+04vg of AAV8/luc virus or the complex of AAV8/luc and THR per cell for 1 h at 37° C. The final mixture was added into cells and incubated at 37° C. for 48 h. Cells were lysed with passive lysis buffer (Promega, Madison, WI) and luciferase activity was measured. Nab titers were defined as the highest dilution for which luciferase activity was 50% lower than serum-free controls.

Entries after “also recorded” stand apart in the source; their conditions may differ. Ends that are not written are not given here.

The results in this text go back to patent US12281335B2, “Methods and compositions for delivery of viral vectors across the blood-brain barrier” (priority 2017, dated 2025).

T1 sequence (Q62351 whole entry): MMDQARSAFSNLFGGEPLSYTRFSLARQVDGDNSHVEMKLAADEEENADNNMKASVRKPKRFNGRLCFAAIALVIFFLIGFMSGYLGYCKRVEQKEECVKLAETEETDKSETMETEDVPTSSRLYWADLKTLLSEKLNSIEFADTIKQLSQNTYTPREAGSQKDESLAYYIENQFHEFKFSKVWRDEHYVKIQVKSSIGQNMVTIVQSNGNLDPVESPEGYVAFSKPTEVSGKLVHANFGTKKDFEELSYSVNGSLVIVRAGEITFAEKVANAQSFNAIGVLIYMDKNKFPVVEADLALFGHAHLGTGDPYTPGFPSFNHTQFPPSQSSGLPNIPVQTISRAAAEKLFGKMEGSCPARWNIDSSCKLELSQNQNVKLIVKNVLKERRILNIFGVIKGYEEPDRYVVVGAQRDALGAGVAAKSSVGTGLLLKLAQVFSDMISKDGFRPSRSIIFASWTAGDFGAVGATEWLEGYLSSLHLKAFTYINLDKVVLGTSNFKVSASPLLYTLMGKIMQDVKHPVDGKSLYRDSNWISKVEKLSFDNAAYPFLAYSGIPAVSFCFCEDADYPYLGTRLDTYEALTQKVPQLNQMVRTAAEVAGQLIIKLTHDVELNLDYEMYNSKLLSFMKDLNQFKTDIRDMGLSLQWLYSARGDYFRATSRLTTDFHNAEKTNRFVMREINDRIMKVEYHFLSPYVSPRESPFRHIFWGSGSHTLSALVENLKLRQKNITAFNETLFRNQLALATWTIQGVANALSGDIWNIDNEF

Regarding THRPPMWSPVWP-NH2 [THR], in [1], the “inhibition of transferrin binding to AAV8” value is given as “competes with human transferrin binding to AAV8”. For the same substance, the “AAV9 brain transduction after systemic administration” value in data set [2] is on record as “failed to enhance AAV9 brain transduction”. In the data set with C57BL/6 mice [3] (0.1 mM peptide + 5E+10 vg AAV8/luc, 7th day), the “AAV8 transduction in the whole body, especially brain (imaging)” value is reported as “significantly increased AAV8 transduction overall; also recorded: significantly enhances AAV8 transduction in vivo, especially in the brain”. Moreover, in the data set on C57BL/6 mice [3] (0.1 mM peptides + 5E+10 vg AAV8/luc, retro-orbital vein, 7th day), the “transgene expression in the liver (imaging)” value is “higher”. In addition, the “AAV8 transduction in whole body and brain (imaging), high dose” value with C57BL/6 mice [3] (1E+11 vg each mouse, AAV8-0.1 mM THR) is “enhanced the AAV8 transduction in both the whole body and the brain”. Besides, the “AAV8 liver transduction (imaging), THR mixed just before injection” value in the data set with C57BL/6 mice [3] (AAV8/0.1 mM THR, no pre-incubation) is reported as “blocked AAV8 liver transduction”. The “luciferase imaging signal, dose dependence” value in the data set on C57BL/6 mice [3] (different concentrations of THR + 5E+10 particles AAV8/luc) is listed as “stronger imaging signals; also recorded: enhances the AAV8 transduction in vivo in a dose-dependent manner”. Moreover, in the data set on C57BL/6 mice [4] (0.1 mM peptides + 5E+10 vg AAV8/luc, vs AAV8 only), the “AAV genome copy number in the brain” value is listed as “much higher”. For the same substance, in the data set on C57BL/6 mice [4] (three groups with different THR concentrations + 5E+10 particles AAV8/luc), the “gene copy number in liver, brain and spleen” value is listed as “significantly higher enhancement than the control group; also recorded: more vector genome copy number in the brain”. Also, the “AAV8 virions binding to the Huh7 cells surface” value in the data set on Huh7 cells is “dramatically increased AAV8 virions binding; also recorded: enhanced the binding ability of AAV8 dose dependently”. For the same substance, the “AAV8 brain transduction (luc expression and genome number)” value with C57BL/6 mice [5] (0.1 mM peptides + 5E+10 vg AAV8/luc) is given as “increased AAV8 transduction in the brain”. In the data set on C57BL/6 mice [5] (AAV8/0.1 mM THR, no pre-incubation, vs AAV8), the “luciferase expression and virus distribution in the brain, THR mixed just before injection” value is recorded as “did not observe a significant difference”. For the same substance, the “AAV8 transduction (luciferase)” value in data set [6] is given as “significantly enhanced AAV8 transduction; also recorded: the most significant increase of AAV8 transduction”. The “blood clearance of AAV8” value in the data set with C57BL/6 mice [7] is given as “decreasing the AAV8 clearance in the blood”. Moreover, the “interaction with mouse TfR1” value at mouse TfR1 is recorded as “could interact with mouse TfR1”. The “AAV8/luc neutralization titer (Nab titer)” value with Huh7 or HEK293 cells is “did not interfere with the AAV8/luc neutralization titer; also recorded: does not interfere with the AAV8 biology”.
